Experimental data: ChEMBL document CHEMBL2146373, “How to blast osteoblasts? Novel dicarba analogues of amylin-(1-8) to treat osteoporosis” (Bioorg Med Chem, 2012)
Calls of active or inactive are those of the source. The calls are words filed in the database; no cut-off is given here.

System: Osteoblast
Test: Osteoblast activity in neonatal rat calvarie-derived primary osteoblasts assessed as [3H]thymidine incorporation at 10^-10 to 10^-8 M by beta counting
Type: functional, cell-based

Compound | Activity
C[C@H](NC(=O)[C@@H]1CCCCNC(=O)OCC=CCOC(=O)NCCCC[C@H](NC(=O)[C@@H](N)CCCCN)C(=O)N[C@@H](CC(N)=O)C(=O)N[C@@H]([C@@H](C)O)C(=O)N[C@@H](C)C(=O)N[C@@H]([C@@H](C)O)C(=O)N1)C(N)=O (mixture of isomers; 5a) | Active
C[C@H](NC(=O)[C@@H]1CC=CC[C@H](NC(=O)[C@@H](N)CCCCN)C(=O)N[C@@H](CC(N)=O)C(=O)N2CCC[C@H]2C(=O)N[C@@H](C)C(=O)N[C@@H]([C@@H](C)O)C(=O)N1)C(N)=O (mixture of isomers; 2b) | inactive
C[C@H](NC(=O)[C@@H]1CC=CC[C@H](NC(=O)[C@@H](N)CCCCN)C(=O)N[C@@H](CC(N)=O)C(=O)N[C@@H]([C@@H](C)O)C(=O)N[C@@H](C)C(=O)N[C@@H]([C@@H](C)O)C(=O)N1)C(N)=O (mixture of isomers) | Active
C[C@H](NC(=O)[C@@H]1CCCCNC(=O)OCC=CCOC(=O)NCCCC[C@H](NC(=O)[C@@H](N)CCCCN)C(=O)N[C@@H](CC(N)=O)C(=O)N[C@@H]([C@@H](C)O)C(=O)N[C@@H](C)C(=O)N[C@@H]([C@@H](C)O)C(=O)N1)C(N)=O (mixture of isomers; 5b) | Active
C[C@H](NC(=O)[C@@H]1CC=CC[C@H](NC(=O)[C@@H](N)CCCCN)C(=O)N[C@@H](CC(N)=O)C(=O)N2CCC[C@H]2C(=O)N[C@@H](C)C(=O)N[C@@H]([C@@H](C)O)C(=O)N1)C(N)=O (mixture of isomers; 2a) | inactive
